Measurements taken from patent US6784201B2, “Benzothiepines having activity as inhibitors of ileal bile acid transport and taurocholate uptake” (G.D. Searle & Company, priority 1994, dated 2004).
Where a name gives a salt, the structure may show the parent alone. Read-outs that look alike come from different tables or passages of the source.

Key:
fecal bile acid (FBA) = experiment: Rat gavage assay (fecal bile acid increase); type: in vivo
Description: Male Wister rats (275-300 g) are administered IBAT inhibitors using an oral gavage procedure. Drug or vehicle (0.2% Tween 80 in water) is administered once a day (9:00-10:0 a.m.) for 4 days at varying dosages in a final volume of 2 mL per kilogram of body weight. Total fecal samples are collected during the final 48 hours of the treatment period and analyzed for bile acid content using an enzymatic assay as described below. Compound efficacy is determined by comparison of the increase in fecal bile acid (FBA) concentration in treated rats to the mean FBA concentration of rats in the vehicle group.
Measurement of Fecal Bile Acid Concentration (FBA)
Total fecal output from individually housed hamsters was collected for 24 or 48 hours, dried under a stream of nitrogen, pulverized and weighed. Approximately 0.1 gram was weighed out and extracted into an organic solvent (butanol/water). Following separation and drying, the residue was dissolved in methanol and the amount of bile acid present was measured enzymatically using the 3α-hydroxysteroid steroid dehydrogenase reaction with bile acids to reduce NAD. (Reference: Mashige, F., et al. (1981) Clin. Chem. 27, 1352).

human IBAT = biological target: T1, human IBAT (Homo sapiens, UniProt Q12908); experiment: In vitro assay of IBAT-mediated uptake of [14C]-taurocholate (TC) in H14 cells; type: cell-based
T1 construct: expressed in transfected cells; host or cells: Baby hamster kidney (BHK) cells, clone H14
T1 sequence (Q12908 1-348): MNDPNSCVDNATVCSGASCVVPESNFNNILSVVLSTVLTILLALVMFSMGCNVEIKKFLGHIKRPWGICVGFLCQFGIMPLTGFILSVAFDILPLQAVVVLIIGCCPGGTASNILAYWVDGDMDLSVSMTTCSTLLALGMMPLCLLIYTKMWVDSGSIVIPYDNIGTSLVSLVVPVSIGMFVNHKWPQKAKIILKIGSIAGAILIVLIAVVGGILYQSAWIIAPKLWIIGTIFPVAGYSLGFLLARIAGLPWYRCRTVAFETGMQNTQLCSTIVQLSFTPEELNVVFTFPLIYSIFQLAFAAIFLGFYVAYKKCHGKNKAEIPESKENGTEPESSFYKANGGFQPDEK
Procedure, shortened: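 BHK cells stably expressing human IBAT (H14) were incubated 2 h at 37° C with compound and 3 μM final [14C]-taurocholate in DMEM (4.5 g/L glucose) plus 0.2% fatty acid-free BSA. After cold PBS washes, cell-associated radioactivity was measured by scintillation counting.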

H14 cells = experiment: In vitro assay of uptake of [14C]-alanine; type: cell-based, hamster
Description: Baby hamster kidney cells (BHK) transfected with the cDNA of human IBAT (H14 cells) are seeded at 60,000 cells/well in 96 well Top-Count tissue culture plates for assays run within in 24 hours of seeding, 30,000 cells/well for assays run within 48 hours, and 10,000 cells/well for assays run within 72 hours.
On the day of assay, the cell monolayer is gently washed once with 100 μl assay buffer (Dulbecco's Modified Eagle's medium with 4.5 g/L glucose+0.2% (w/v) fatty acid free bovine serum albumin-(FAF)BSA). To each well 50 μl of a two-fold concentrate of test compound in assay buffer is added along with 50 μl of 6 μM [^14C]-taurocholate in assay buffer (final concentration of 3 μM [^14C]-taurocholate). The cell culture plates are incubated 2 hours at 37° C. prior to gently washing each well twice with 100 μl 4° C. Dulbecco's phosphate-buffered saline (PBS) containing 0.2% (w/v) (FAF)BSA. The wells are then gently washed once with 100 μl 4° C. PBS without (FAF)BSA. To each 200 μl of liquid scintillation counting fluid is added, the plates are heat sealed and shaken for 30 minutes at room temperature prior to measuring the amount of radioactivity in each well on a Packard Top-Count instrument.
In Vitro Assay of Compounds that Inhibit Uptake of [^14C3-Alanine
The alanine uptake assay is performed in an identical fashion to the taurocholate assay, with the exception that labeled alanine is substituted for the labeled taurocholate.

[1] = In Vitro Taurocholate Uptake, Table 10, read-out: Human TC IC50
[2] = H14 cells, Table 5, read-out: IC50 uM (In vitro Taurocholate Cell Uptake)

SMILES | melting point [°C] | IC50 (human IBAT; [1]) [µM] | IC50 (human IBAT; [2]) [µM] | also measured
CCCCC1(CCCC)CS(=O)(=O)c2ccc(N(C)C)cc2[C@@H](c2cccc(NC(=O)OCCC[N+]34CCN(CC3)CC4)c2)[C@H]1O.[Cl-] | 218 to 225 |  |  | 
CCCCC1(CCCC)CS(=O)(=O)c2ccc(N(C)C)cc2[C@@H](c2cccc(NC(=O)Nc3cccc(C[N+]45CCN(CC4)CC5)c3)c2)[C@H]1O.[Cl-] | 246 to 248 |  |  | 
CCCCC1(CCCC)CS(=O)(=O)c2ccc(N(C)C)cc2[C@@H](c2ccc(OCCCCC[n+]3cccc4ccccc43)cc2)[C@H]1O (as salt: methanesulfonate) [Example 1412, (4R-cis)-1-[5-[4-[3,3-Dibutyl-7-(dimethylamino)-2,3,4,5-tetrahydro-4-hydroxy-1,1-dioxido-1-benzothiepin-5-yl]phenoxy]pentyl]quinolinium, methanesulfonate (Salt)] | 136 |  |  | 
CCCCC1(CCCC)CS(=O)(=O)c2ccc(N(C)C)cc2[C@@H](c2ccc(OCCCCC[N+](C)(C)CCCCCC[N+](C)(C)CCCCCOc3ccc([C@@H]4c5cc(N(C)C)ccc5S(=O)(=O)CC(CCCC)(CCCC)[C@@H]4O)cc3)cc2)[C@H]1O (relative stereo) [Example 1419, [4R-[4a,5a(4R*,5R*)]]-N,N′-bis[5-[4-[3,3-Dibutyl-7-(dimethylamino)-2,3,4,5-tetrahydro-4-hydroxy-1,1-dioxido-1-benzothiepin-5-yl]phenoxy]pentyl]-N,N,N′N′-tetramethyl-1,6-hexanediaminium dichloride] | 178 to 182 | 0.003 |  | Delta (micromoles fecal bile acid per day) (fecal bile acid (FBA); dose 2 mg/kg/day): 28.5 micromoles fecal bile acid per day; Delta (micromoles fecal bile acid per day) (fecal bile acid (FBA); dose .016 mg/kg/day): 5.8 micromoles fecal bile acid per day; Delta (micromoles fecal bile acid per day) (fecal bile acid (FBA); dose .08 mg/kg/day): 10.3 micromoles fecal bile acid per day; Delta (micromoles fecal bile acid per day) (fecal bile acid (FBA); dose .4 mg/kg/day): 13.9 micromoles fecal bile acid per day
CCCCC1(CC)CS(=O)(=O)c2ccccc2C(=C2CCCCC2)C1O (stereo not shown) [Example 10a, 3-Butyl-3-ethyl-4-hydroxy-5-cyclohexylidine--2,3,4,5-tetrahydrobenzothiepine-1,1-dioxide] |  |  | 7 | % Inhibition of Alanine Uptake @ 100 uM (H14 cells; 100 uM): 77.6%
CCCCC1(CC)CS(=O)(=O)c2cc(OCC)ccc2C(c2ccccc2)C1O (stereo not shown) [Example 28] |  |  | 8 | inhibition at 20 µM (H14 cells; Mesocricetus auratus): 31%
CCCC[C@]1(CC)CS(=O)(=O)c2ccc(NO)cc2[C@H](c2ccccc2)[C@@H]1O [Example 37, (3α,4α,5α) 3-Butyl-3-ethyl-4-hydroxy-7-hydroxyamino-5-phenyl-2,3,4,5-tetrahydrobenzothiepine-1,1-dioxide] |  |  | 3 | inhibition at 5 µM (H14 cells; Mesocricetus auratus, 5 μM): 0%
CCCCCCNc1ccc2c(c1)[C@@H](c1ccccc1)[C@@H](O)[C@](CC)(CCCC)CS2(=O)=O [Example 41, (3α,4β,5β) 3-Butyl-3-ethyl-7-(n-hexylamino)-4-hydroxy-5-phenyl-2,3,4,5-tetrahydrobenzothiepine-1,1-dioxide] |  |  | 2 | inhibition at 20 µM (H14 cells; Mesocricetus auratus): 0%
CCCC[C@]1(CC)CS(=O)(=O)c2ccccc2[C@@H](c2ccc(C(=O)OC)cc2)[C@H]1O [Example 43, (3α,4β,5β) 3-Butyl-5-(4-carbomethoxyphenyl)-3-ethyl-4-hydroxy-2,3,4,5-tetrahydrobenzothiepine-1,1-dioxide] |  |  | 1.5 | inhibition at 25 µM (H14 cells; Mesocricetus auratus, 25 μM): 16%
CCCC[C@]1(CC)CS(=O)(=O)c2ccc(OC)cc2[C@H](c2ccccc2)[C@@H]1O [Example 48, (3α,4α,5α) 3-Butyl-3-ethyl-4-hydroxy-7-methoxy-5-phenyl-2,3,4,5-tetrahydrobenzothiepine-1,1-dioxide] |  |  | 2 | inhibition at 20 µM (H14 cells; Mesocricetus auratus): 22%
CCC1(CC)CS(=O)(=O)c2ccc(NC(=O)OCc3ccccc3)cc2[C@@H](c2ccccc2)[C@H]1O [Example 286] | 180 to 181 |  |  | IC50 (human IBAT; read-out: Human TC IC50): 19 µM
CCCCC1(CCCC)CS(=O)(=O)c2ccc(N(C)C)cc2[C@@H](c2ccc(OCCCCS(N)(=O)=O)cc2)[C@H]1O [Example 1405] | 108 to 110 | 0.021 |  | 
CCCCC1(CCCC)CS(=O)(=O)c2ccc(N(C)C)cc2[C@@H](c2ccc(OCCCCCC(C(=O)O)C(=O)O)cc2)[C@H]1O [Example 1413, (4S-cis)-[5-[4-[3,3-Dibutyl-7-(dimethylamino)-2,3,4,5-tetrahydro-4-hydroxy-1,1-dioxido-1-benzothiepin-5-yl]phenoxy]pentyl]propanedioic acid] | 118 | 0.003 |  | Delta (micromoles fecal bile acid per day) (fecal bile acid (FBA); dose 5 mg/kg/day): 52.3 micromoles fecal bile acid per day; Delta (micromoles fecal bile acid per day) (fecal bile acid (FBA); dose .04 mg/kg/day): 19 micromoles fecal bile acid per day; Delta (micromoles fecal bile acid per day) (fecal bile acid (FBA); dose .2 mg/kg/day): 42.4 micromoles fecal bile acid per day
CCCCC1(CCCC)CS(=O)(=O)c2ccc(N(C)C)cc2[C@@H](c2ccc(OCCCCC[N+](C)(C)CC[N+](C)(C)CC)cc2)[C@H]1O [Example 1418, (4R-cis)-N-[5-[4-[3,3-Dibutyl-7-(dimethylamino)-2,3,4,5-tetrahydro-4-hydroxy-1,1-dioxido-1-benzothiepin-5-yl]phenoxy]pentyl]-N′-ethyl-N,N,N′,N′-tetramethyl-1,2-ethanediaminium dichloride] | 193 to 197 | < 0.001 |  | Delta (micromoles fecal bile acid per day) (fecal bile acid (FBA); dose 2 mg/kg/day): 20.3 micromoles fecal bile acid per day; Delta (micromoles fecal bile acid per day) (fecal bile acid (FBA); dose .016 mg/kg/day): −10 micromoles fecal bile acid per day; Delta (micromoles fecal bile acid per day) (fecal bile acid (FBA); dose .08 mg/kg/day): −4.6 micromoles fecal bile acid per day; Delta (micromoles fecal bile acid per day) (fecal bile acid (FBA); dose .4 mg/kg/day): 29.5 micromoles fecal bile acid per day
CCCCC1(CCCC)CS(=O)(=O)c2ccc(N(C)C)cc2[C@@H](c2ccc(OCCCCCc3nn[nH]n3)cc2)[C@H]1O [Example 1420, (4R-cis)-3,3-Dibutyl-7-(dimethylamino)-2,3,4,5-tetrahydro-5-[4-[[5-(1H-tetrazol-5-yl)pentyl]oxy]phenyl]-1-benzothiepin-4-ol 1,1-dioxide] | 80 to 85 | 0.011 |  | Delta (micromoles fecal bile acid per day) (fecal bile acid (FBA); dose 2 mg/kg/day): 53.1 micromoles fecal bile acid per day; Delta (micromoles fecal bile acid per day) (fecal bile acid (FBA); dose .016 mg/kg/day): 29.6 micromoles fecal bile acid per day; Delta (micromoles fecal bile acid per day) (fecal bile acid (FBA); dose .08 mg/kg/day): 38.1 micromoles fecal bile acid per day; Delta (micromoles fecal bile acid per day) (fecal bile acid (FBA); dose .4 mg/kg/day): 45 micromoles fecal bile acid per day
CCCCC1(CCCC)CS(=O)(=O)c2ccc(N(C)C)cc2[C@@H](c2ccc(OCCCCCOc3cc(C(=O)O)nc(C(=O)O)c3)cc2)[C@H]1O [Example 1421] | 143 | 0.004 |  | Delta (micromoles fecal bile acid per day) (fecal bile acid (FBA); dose 2 mg/kg/day): 57.8 micromoles fecal bile acid per day; Delta (micromoles fecal bile acid per day) (fecal bile acid (FBA); dose .016 mg/kg/day): 4.7 micromoles fecal bile acid per day; Delta (micromoles fecal bile acid per day) (fecal bile acid (FBA); dose .08 mg/kg/day): 25.3 micromoles fecal bile acid per day; Delta (micromoles fecal bile acid per day) (fecal bile acid (FBA); dose .4 mg/kg/day): 27.7 micromoles fecal bile acid per day
CCCCC1(CCCC)CS(=O)(=O)c2ccc(N(C)C)cc2[C@@H](c2ccc(OCCCCCNC(=N)N)cc2)[C@H]1O [Example 1422, (4R-cis)-[5-[4-[3,3-Dibutyl-7-(dimethylamino)-2,3,4,5-tetrahydro-4-hydroxy-1,1-dioxido-1-benzothiepin-5-yl]phenoxy]pentyl]guanidine] | 67 to 72.5 | 0.003 |  | 
CCCCC1(CCCC)CS(=O)(=O)c2ccc(N(C)C)cc2[C@@H](c2ccc(OCc3ccc(C(=O)O)cc3)cc2)[C@H]1O [Example 1424, (4R-cis)-4-[[4-[3,3-Dibutyl-7-(dimethylamino)-2,3,4,5-tetrahydro-4-hydroxy-1,1-dioxido-1-benzothiepin-5-yl]phenoxy]methyl]benzoic acid] | 156 to 159 | 0.014 |  | 
